Earlier results as cited in US6312728A, “Sustained release pharmaceutical preparation” (Cascade Development, Inc., priority 1999, dated 2001).
Where two headings read alike, the source gives them in different places.

What was measured:
[1] = patients
[2] = intravenous administration
[3] = in vivo

In the case of `O=C1NC(=O)C(c2ccccc2)(c2ccccc2)N1` [phenytoin sodium], the solubility in water is given as “much more soluble”.

For `O=C1NC(=O)C(c2ccccc2)(c2ccccc2)N1` [phenytoin, 5,5-diphenyl-2,4-imidazolidinedione], the “bioavailability following oral administration” value [1] is given as “great variations in bioavailability”, the solubility in water is given as “poor solubility in water” and the solubility in water (listed as free-phenytoin) is given as “practically insoluble in water”. For the same compound, the serious adverse effects [2] was “serious adverse effects, including cardiac arrhythmias and hypotensioni” and the half-life [3] was greater than 6 h.
